This data set is described as follows: in vivo. The format is in vivo, rat. On the procedure: The above developed LC-qTOF-MS method was applied to obtain the PK parameters after IV and PO administration in rat. Most of the PK samples were within the qualified calibration curve, except the 2 min-time point samples in the IV group which were slightly above the upper limit of quantification (ULOQ). Since the calibration curve was linear in the range of quantification, the concentrations of these early time point IV samples have been calculated by extrapolation of the calibration curve which is also applicable for discovery study in pharmaceutical industries. The PK parameters were calculated with the non-compartmental analysis (NCA) using WinNonlin® version 8.1.0 (Certara, Princeton, NJ, USA) and the results are summarized in Table 6.
Animal Male SD rats (320 ± 10 g) were purchased from the Samtako Biokorea co. (Gyeonggi, Republic of Korea) and housed in a group of four units per cage and given standard rodent chow. The rats were fasted overnight with free access to water for 12 h before administration. The formulation was prepared by dissolving α-amanitin in normal saline (NS) and DMSO (4:1, v/v).
The rats with femoral artery and femoral vein cannulation were prepared for the IV administration, and the rats with single femoral artery cannulation were prepared for the PO administration. The cannulated SD rats were given 1 mg/kg of α-amanitin by either IV bolus or PO (n = 4, both). After administration of α-amanitin, blood sample was collected through a femoral artery cannula and transferred into a heparin-containing tube at each sampling time point (IV: 2, 5, 15, 30, 60, 120, 240, 480, and 1440 min after drug administration and PO: 5, 15, 30, 60, 120, 240, 480, and 1440 min after drug administration). Then plasma sample was obtained by centrifuging the blood sample at 13,000 rpm for 5 min. The obtained plasma samples were stored at –20 °C until analysis. After analysis, the PK parameter was calculated using WinNonlin®.

Where [1] appears, read: rat, in vivo, male SD rats, IV bolus 1 mg/kg, plasma, NCA, n = 4.

The AUC(0-t) is exposure summed from dosing to a finite time, without extrapolation to infinity. High values mean more exposure, low ones less exposure. Broadly, the clearance is the rate of elimination divided by the concentration. The low end stands for a low capacity for elimination, the high end for a high capacity for elimination. By half-life is commonly meant the time needed for the level to fall by half in the phase considered. A word on the Cmax: it is the highest concentration seen after dosing.

With `CC[C@H](C)[C@@H]1NC(=O)CNC(=O)[C@@H]2Cc3c([nH]c4cc(O)ccc34)[S@+]([O-])C[C@H](NC(=O)CNC1=O)C(=O)N[C@@H](CC(N)=O)C(=O)N1C[C@H](O)C[C@H]1C(=O)N[C@@H]([C@@H](C)[C@@H](O)CO)C(=O)N2` [α-amanitin], under “male SD rats, PO 1 mg/kg, all samples 5-1440 min, n = 4, calibration range 3.05–2220 ng/mL”, the “Plasma concentration after PO administration” value is on record as “below the LLOQ”. In addition, for the setting “rat, IV 1 mg/kg”, the “In vivo clearance as % of hepatic blood flow” value is given as approximately 30%. The “Bioavailability (in words)” value (rat, PO 1 mg/kg) is listed as “very low bioavailability”. Moreover, under setting [1], the area under the curve AUC(0-t) is 1170 ng·h/mL, the clearance amounted to 14 ± 1.3 mL/min/kg and the half-life came out at 22.3 ± 0.98 min. The Cmax (rat, in vivo, male SD rats, IV bolus 1 mg/kg, plasma, NCA, n = 4, 2 min samples extrapolated above ULOQ) was 2290 ± 274 ng/mL. Moreover, the Vd (rat, in vivo, male SD rats, IV bolus 1 mg/kg, plasma, NCA, n = 4, read-out: Vss) worked out at 0.409 ± 0.0183 L/kg.

Values taken from PMC9740789, “Investigation of In Vitro and In Vivo Metabolism of α-Amanitin in Rats Using Liquid Chromatography-Quadrupole Time-of-Flight Mass Spectrometric Method” (Molecules, 2022).
